Measurements published in patent US9572786B2, “Use of capsiate or dihydrocapsidate” (Catholic University Industry Academy Cooperation Foundation, priority 2007, dated 2017).

Tested on: Sprague dawley (SD) rats
Test: Retinal vascular permeability in streptozotocin induced diabetic retinopathy
Type: in vivo, rat
Conditions: intravitreally injected 1-week after streptozotocin, observed at 3 weeks with dextran FITC
Protocol: Diabetes are induced by performing intraperitoneal injection of 60 mg/kg of streptozotocin (Sigma, St Louis, Mo., USA) into 8-week-old male Sprague dawley (SD) rats (250 g). 3 days later, serum glucose level was measured and rats having serum glucose level of […] and more are selected and used in experiments. Capsiate or capsaicin was intravitreally injected 1-week after the injection of streptozotocin, respectively. 3 weeks after the injection of streptozotocin, 0.5 ml of dextran FITC (25 mg/ml, MW 40K, Sigma, St Louis, Mo., USA) was injected through tail vein of tested rats to imaging retinal vascular pattern. Retinal tissues of the rats are isolated and observed by fluorescent microscopy (Olympus, Tokyo, Japan). The increase of retinal vascular permeability is observed in nonproliferative diabetic retinopathy, proliferative diabetic retinopathy and diabetic macular edema and result from cracks in vascular vessel due to breakdown of blood-retinal barrier (BRB).

COc1cc(CNC(=O)CCCC/C=C/C(C)C)ccc1O [Capsaicin, capsaicin, reference compound]
increment of retinal vascular permeability: does not effect
